Test results as given in US20220402862A1 (Intellia Therapeutics, Inc., priority 2019, published 2022).
Several values for one entry are separate records, joined by “and”; a condition that tells them apart may be missing. Identical values can stand only once.

Tests used:
[1] = RNA encapsulation efficiency of LNPs (Ribogreen fluorescence assay); type: physicochemical; conditions: LNP; for Encapsulation (%): sg:mRNA 1:1, N/P about 6, amine lipid/DSPC/cholesterol/PEG-2k-DMG 50/9/38/3, Table 2, Experiments 2-20
How it was run: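 Encapsulation efficiency is (Total RNA − Free RNA)/Total RNA. Free RNA was quantified by RiboGreen fluorescence (488/525 nm, ~10 min, RT, dark) in plain TE buffer; total RNA was quantified after LNP lysis with 0.2% Triton X-100, both against RNA standard curves.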

[2] = Dynamic light scattering of LNPs: Z-average diameter, number average diameter, PDI; type: physicochemical; conditions: LNP
How it was run: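 Values reported are the Z-average (intensity-weighted mean size), the number-average diameter and the PDI (spread of sizes, 0 = fully uniform). All three came from dynamic light scattering of LNP preparations after dilution in PBS.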

mouse TTR gene = experiment: In vivo editing in mouse liver, sgRNA targeting TTR (G282 or G502), % indel by NGS; set-up: species or system CD-1 female mice; conditions: guide G502, Experiment 105
Description: CD-1 female mice ranging from 6-10 weeks of age were used in each study. Animals were weighed and grouped according to body weight for preparing dosing solutions based on group average weight. LNPs were dosed via the lateral tail vein in a volume of 0.2 mL per animal (approximately 10 mL per kilogram body weight). The animals were periodically observed for adverse effects for at least 24 hours post dose. For studies measuring in vivo editing in liver, CD-1 female mice were dosed at 0.1 mg/kg unless otherwise noted. Animals were euthanized at 6 or 7 days by ex sanguination via cardiac puncture under isoflurane anesthesia. Liver tissue was collected from each animal for DNA extraction and analysis. Blood was collected into serum separator tubes or into tubes containing buffered sodium citrate for plasma as described herein. Cohorts of mice were measured for editing by Next-Generation Sequencing (NGS).
In brief, to quantitatively determine the efficiency of editing at the target location in the genome, genomic DNA was isolated and deep sequencing was utilized to identify the presence of insertions and deletions introduced by gene editing.
PCR primers were designed around the target site (e.g., within B2M), and the genomic area of interest was amplified. Additional PCR was performed according to the manufacturer's protocols (Illumina) to add the necessary chemistry for sequencing. The amplicons were sequenced on an Illumina MiSeq instrument. The reads were aligned to the mouse or rat reference genome (e.g., GRCm38) after eliminating those having low quality scores. The resulting files containing the reads were mapped to the reference genome (BAM files), where reads that overlapped the target region of interest were selected and the number of wild type reads versus the number of reads which contain an insertion, substitution, or deletion was calculated.
The editing percentage (e.g., the “indel efficiency” or “percent indels”) was defined as the total number of sequence reads with insertions or deletions over the total number of sequence reads, including wild type.
We assessed in vivo editing efficiency for materials delivered with formulations including various amine lipid compounds. Editing was measured using either G282 (SEQ ID No: 1) which targets the mouse TTR gene or G650 (SEQ ID No. 2) which targets the mouse B2M gene. Lipids described above were assessed for efficacy through in vivo editing experiments. LNPs were formulated at a 1:1 or 1:1.3 w/w ratio of sgRNA to Cas9 mRNA, and at an N/P ratio of about 6. Molar concentrations of lipids in the lipid component of the LNPs are used at mol % amine lipid/DSPC/cholesterol/PEG-2k-DMG of 50/9/38/3. The final LNPs were characterized to determine the encapsulation efficiency, polydispersity index, and average particle size according to the analytical methods provided above. Analysis of average particle size, polydispersity (PDI), total RNA content and encapsulation efficiency of RNA are shown in Table 2.
To assess whether the editing was dose responsive, experiments were performed in vivo at various LNP dose levels. Cas9 mRNA of Example 120 was formulated as LNPs with an sgRNA targeting TTR (G282, SEQ ID NO: 1; or G502, SEQ ID NO: 4).
We assessed in vivo delivery by measuring editing efficiency for materials delivered with formulations that included various amine lipid compounds. Cas9 mRNA (SEQ ID NO: 6) was formulated as LNPs with an sgRNA targetting the TTR mouse gene (SEQ ID NO: 4). LNPs were formulated at a 1:2 w/w ratio of sgRNA to Cas9 mRNA, and at an N/P ratio of about 6. Molar concentrations of lipids in the lipid component of the LNPs are used at mol % amine lipid/DSPC/cholesterol/PEG-2k-DMG of 50/9/38/3. The final LNPs compositions were characterized and analyzed as described in Example 120. Analysis of average particle size, polydispersity (PDI), total RNA content and encapsulation efficiency of RNA are shown in Table 6.

Transthyretin (TTR) = experiment: Serum TTR ELISA in mice after LNP dosing; type: in vivo, CD-1 female mice
How it was run: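 Serum mouse TTR was quantified by ELISA at 10,000-fold dilution for 0.1 mg/kg and 10,000/2,500-fold for 0.3 mg/kg. Samples came from female CD-1 mice (6–10 weeks) killed 6 or 7 days after a single intravenous LNP dose, usually 0.1 mg/kg.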

[3] = pKa measurement of unformulated amine lipid (fluorescence, method of Jayaraman et al.); type: physicochemical; conditions: 100 μM in 0.1 M phosphate buffer, pH 2.0-12.0
Description: The pKa of each amine lipid was determined according to the method in Jayaraman, et al. (Angewandte Chemie, 2012) with the following adaptations. […] Lipid was diluted to 100 μM in 0.1 M phosphate buffer (Boston Bioproducts) where the pH ranged from 2.0-12.0. Fluorescence intensity was measured using excitation and emission wavelengths of 321 nm and 448 nm.

[4] = sg:mRNA 1:2, N/P 6.0, 50/9/38/3, Table 4, Experiment 105
[5] = sg:mRNA 1:1, N/P about 6, 50/9/38/3, Table 2, Experiments 2-20
[6] = mouse serum TTR relative to TSS control, guide G282 experiments
[7] = mouse serum, guide G282 experiments, ELISA

Row | SMILES | Encapsulation (%) [1] | % E [1, 4] | Number mean (nm) [2, 5] | PDI [2, 5] | Z-avg (nm) [2, 5] | Number mean (nm) [2, 4] | PDI [2, 4] | Z-avg (nm) [2, 4] | Editing Mean % Indel (mouse TTR gene; LNP i.v. 0.03 mg/kg) | Editing Mean % Indel (mouse TTR gene; LNP i.v. 0.1 mg/kg) | Serum TTR % TSS (Transthyretin (TTR); [6]) | Serum TTR (Transthyretin (TTR); [7]) | Serum TTR (Transthyretin (TTR); mouse, LNP i.v. 0.03 mg/kg, guide G502, Experiment 105) | Serum TTR % TSS (Transthyretin (TTR); mouse, LNP i.v. 0.03 mg/kg, guide G502, Experiment 105, relative to TSS control) | Serum TTR (Transthyretin (TTR); mouse, LNP i.v. 0.1 mg/kg, guide G502, Experiment 105) | Serum TTR % TSS (Transthyretin (TTR); mouse, LNP i.v. 0.1 mg/kg, guide G502, Experiment 105, relative to TSS control) | pKa [3]
1 | CCCCC/C=C\C/C=C\CCCCCCCC(=O)OCC(COC(=O)CCC(OCCCCCCCC)OCCCCCCCC)COC(=O)OCCC1CCCN1C (centres unmarked) [Compound 24, 3-((4,4-bis(octyloxy)butanoyl)oxy)-2-((((2-(1-methylpyrrolidin-2-yl)ethoxy)carbonyl)oxy)methyl)propyl (9Z,12Z)-octadeca-9,12-dienoate] | 98% and 97% | 99% | 61.34 nm and 66.88 nm and 63.16 nm | 0.027 and 0.033 and 0.025 | 76.82 nm and 83.92 nm and 77.24 nm | 72.95 nm | 0.029 | 88.39 nm | 11.34% | 40.54% | 46% | 397 µg/mL | 772 µg/mL | 70% | 420 µg/mL | 38% | 
2 | CCCCCCCCCCOC(=O)CCCCCCCC(=O)OCC(COC(=O)CCCC(=O)OC(CCCCCCCC)CCCCCCCC)COC(=O)CCCN(C)C (centres unmarked) [Compound 89, 1-decyl 9-(3-((4-(dimethylamino)butanoyl)oxy)-2-(((5-(heptadecan-9-yloxy)-5-oxopentanoyl)oxy)methyl)propyl) nonanedioate] | 95% |  | 89.4 nm | 0.008 | 107.3 nm |  |  |  |  |  | 102% | 774 µg/mL |  |  |  |  | 6.79
3 | CCCCCCCCCCOC(=O)CCCCCCCCCC(=O)OCC(COC(=O)CCC(OCCCCCCCC)OCCCCCCCC)COC(=O)OCCCN(CC)CC (centres unmarked) [Compound 90, 1-(3-((4,4-bis(octyloxy)butanoyl)oxy)-2-((((3-(diethylamino)propoxy)carbonyl)oxy)methyl)propyl) 11-decyl undecanedioate] | 99% |  | 81.15 nm | 0.017 | 99.62 nm |  |  |  |  |  | 67% | 504 µg/mL |  |  |  |  | 6.14
4 | CCCCCCCCCCOC(=O)CCCCCCCCCCCC(=O)OCC(COC(=O)CCC(OCCCCCCCC)OCCCCCCCC)COC(=O)OCCCN(CC)CC (centres unmarked) [Compound 91, 1-(3-((4,4-bis(octyloxy)butanoyl)oxy)-2-((((3-(diethylamino)propoxy)carbonyl)oxy)methyl)propyl) 13-decyl tridecanedioate] | 99% |  | 75.67 nm | 0.028 | 93.13 nm |  |  |  |  |  | 84% | 633 µg/mL |  |  |  |  | 6.08
5 | CCCCCCCCCCCCOC(=O)CCCCCCCC(=O)OCC(COC(=O)CCC(OCCCCCCCC)OCCCCCCCC)COC(=O)OCCCN(CC)CC (centres unmarked) [Compound 92, 1-(3-((4,4-bis(octyloxy)butanoyl)oxy)-2-((((3-(diethylamino)propoxy)carbonyl)oxy)methyl)propyl) 9-dodecyl nonanedioate] | 99% |  | 77.35 nm | 0.022 | 93.69 nm |  |  |  |  |  | 62% | 470 µg/mL |  |  |  |  | 6.16
6 | CCCCCCCCCCCCCCOC(=O)CCCCCCCC(=O)OCC(COC(=O)CCC(OCCCCCCCC)OCCCCCCCC)COC(=O)OCCCN(CC)CC (centres unmarked) [Compound 93, 1-(3-((4,4-bis(octyloxy)butanoyl)oxy)-2-((((3-(diethylamino)propoxy)carbonyl)oxy)methyl)propyl) 9-tetradecyl nonanedioate] | 98% |  | 78.73 nm | 0.004 | 95.19 nm |  |  |  |  |  | 88% | 669 µg/mL |  |  |  |  | 6.15
7 | CCCCCCCCCC(CC)OC(=O)CCCCCCCC(=O)OCC(COC(=O)CCC(OCCCCCCCC)OCCCCCCCC)COC(=O)OCCCN(CC)CC (centres unmarked) [Compound 95, 1-(3-((4,4-bis(octyloxy)butanoyl)oxy)-2-((((3-(diethylamino)propoxy)carbonyl)oxy)methyl)propyl) 9-(dodecan-3-yl) nonanedioate] | 99% |  | 74.5 nm | 0.029 | 91.1 nm |  |  |  |  |  | 54% | 408 µg/mL |  |  |  |  | 6.14
8 | CCCCC/C=C\C/C=C\CCCCCCCC(=O)OCC(C)(COC(=O)CCC(OCCCCCCCC)OCCCCCCCC)COC(=O)OCCCN(CC)CC (centres unmarked) [Compound 96, 3-((4,4-bis(octyloxy)butanoyl)oxy)-2-((((3-(diethylamino)propoxy)carbonyl)oxy)methyl)-2-methylpropyl (9Z,12Z)-octadeca-9,12-dienoate] | 98% |  | 65.94 nm | 0.019 | 81.55 nm |  |  |  |  |  | 58% | 449 µg/mL |  |  |  |  | 5.76
